Measured values: paper PMC10714399, “Open Source Antibiotics: Simple Diarylimidazoles Are Potent against Methicillin-Resistant Staphylococcus aureus” (ACS Infectious Diseases, 2023)

Target: T1, kinases of HEK293 cell lysate (TGFBR1) (Homo sapiens, UniProt P36897)
T1 construct: endogenous in cells; host or cells: HEK293 cell lysate
Experiment: MIB-MS kinase competition assay in HEK293 cell lysate
Assay type: binding
Settings: 1 μM
Protocol: To understand the mammalian toxicity of these diarylimidazole derivatives and to aid in future compound design, we experimentally investigated the potential series’ mechanism of action (MoA). […] This affinity composition assay has proven to be a useful approach to validate kinase inhibitor selectivity. […] Whether the inhibition of TGF-β1 contributes to the cytotoxicity observed remains to be determined.
Following a brief incubation with these compounds, lysates were passed over MIBs (see Supporting Information - Biology), and the captured kinases were identified and quantified by mass spectrometry. Displaced kinases are shown to the left of the center line at the designated doses.
Differential abundance (increase or decrease in MIB binding) was determined for kinases identified. The mass spectrometry proteomics data have been deposited to the ProteomeXchange Consortium via the PRIDE[43] partner repository with the dataset identifier PXD040208.
EphB2 TRKB FGFR1 FGFR4 EphB2 TRKB FGFR1 FGFR4
EphA5 EphB1 ROR2 FLT1 FmS/CSFR EphA5 EphB1 ROR2 FLT1 FmS/CSFR
MUSK ROR1Ret Kit MUSK ROR1Ret Kit
EphB3 DDR2 Mer EphB3 DDR2 Mer
EphA3EphA4 DDR1 Axl Tyro/SkyFLT4 PDGFRα EphA3EphA4 DDR1 AxlTyro/SkyFLT4 PDGFRα
IRR FLT3PDGFRβ IRR FLT3PDGFRβ
EphA6 IGF1R HER2 EphA6 IGF1R HER2
Yes InSR Met EGFR Yes InSR Met EGFR
Branch Color Src EphB4 Ron MLK3 Branch Color Src EphB4 Ron MLK3
Lyn EphA7 ALK TIE2 Lyn EphA7 ALK TIE2 […]

T1 sequence (P36897 34-503): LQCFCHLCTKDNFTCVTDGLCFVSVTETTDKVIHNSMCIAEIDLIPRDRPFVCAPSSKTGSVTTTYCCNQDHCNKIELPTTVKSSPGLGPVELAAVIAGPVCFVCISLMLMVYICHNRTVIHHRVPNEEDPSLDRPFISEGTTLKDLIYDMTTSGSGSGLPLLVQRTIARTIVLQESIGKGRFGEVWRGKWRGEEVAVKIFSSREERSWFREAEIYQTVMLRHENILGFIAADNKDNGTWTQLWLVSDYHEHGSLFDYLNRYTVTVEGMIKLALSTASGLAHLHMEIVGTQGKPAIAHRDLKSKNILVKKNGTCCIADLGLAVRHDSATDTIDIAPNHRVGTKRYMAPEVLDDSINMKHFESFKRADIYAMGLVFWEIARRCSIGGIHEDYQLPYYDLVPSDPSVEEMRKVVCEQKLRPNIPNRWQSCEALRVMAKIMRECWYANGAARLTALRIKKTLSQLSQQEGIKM

competition of kinases (TGFBR1) off MIBs: selectively competed off MIBs
Compound: c1ccc(-c2nc3n(c2-c2ccc4sccc4c2)CCC3)nc1 [compound 822]
